Data reported in US20260256792A1, “TREATMENT OF CHRONIC SPONTANEOUS URTICARIA BY ADMINISTERING (R)-2-[3-[4-AMINO-3-(2-FLUORO-4-PHENOXY-PHENYL)PYRAZOLO[3,4-D]PYRIMIDIN-1-YL]PIPERIDINE-1-CARBONYL]-4-METHYL-4-[4-(OXETAN-3-YL)PIPERAZIN-1-YL]PENT-2-ENENITRILE” (priority 2023, published 2026).

System: moderate-to-severe chronic spontaneous urticaria (CSU)
Experiment: Phase 2 CSU study: urticaria activity score over 7 days (UAS7)
Assay type: in vivo, human
Set-up: key to UAS7 Median / UAS7 Change from baseline Median / UAS7 change from baseline, Q1 / UAS7 change from baseline, Q3 / UAS7 change from baseline, Max / UAS7 Change from baseline LS Mean (SE): UAS7 points; daily UAS score ranges 0–6 points/day, over 7 days
Conditions: for UAS7 change from baseline at Week 12, LS Mean (SE): ANCOVA; for UAS7 Mean (SD) / UAS7 Median: End of Study; for UAS7 % Change difference for rilzabrutinib vs. placebo LS Mean (95% CI) / UAS7 % Change from baseline LS Mean (SE) / UAS7 Change difference for rilzabrutinib vs. placebo LS Mean (95% CI) / UAS7 Change from baseline LS Mean (SE): ITT Population
Excerpt: The study comprises a 12 week, randomized, double-blind, placebo-controlled, multi-center, dose-ranging efficacy and safety phase, followed by a 40 week open label extension (OLE) phase (see FIG. 1). The study consists of three phases and an optional OLE phase. […] Clinically, CSU is characterized by the spontaneous and recurrent appearance of pruritic hives. The proposed primary endpoints were the UAS7 at Week 12 in EU and EU reference countries and the ISS7 in the US. Regardless of where a participant was from, all assessments were the same. The UAS7 score is a composite score containing both the HSS7 and the ISS7. This allowed a global assessment of the two key components of urticaria: hives and itch. […] The UAS is a validated PRO measure. […] The daily UAS scores range from 0 to 6 point/day. […] Patients were to complete the UAS using the e-diary. […] The following secondary endpoints were to be analyzed using the same approach as for the primary endpoint: • Change from baseline in UAS7 at Week 4 • Change from baseline in UAS7 at Week 12 (for US and US reference countries) • Change from baseline in ISS7 at Week 12 (except US and US reference countries) • Change from baseline in HSS7 at Week 12 The following responder secondary endpoints were to be analyzed using the Cochran-Mantel-Haenszel test adjusted by region: • Proportion of participants with UAS7<6 at Week 12 • Proportion of participants with UAS7=0 at Week 12 Participants who received selected prohibited medications and/or rescue medications were to be considered as non-responders for time points after the medication usage. For other participants, all available data including those collected during the off-treatment period were to be used to determine the responder/non-responder status. Missing data were to be considered as non-responders.

[1] = 400 mg TID, Omalizumab-Naïve Population (N = 35), double-blind period, last week block of Table 17 (week heading not shown), n observed/imputed 5 (3/2)
[2] = 400 mg TID, Patients with Prior Omalizumab Use, Including Omalizumab-Incomplete Responders (N = 6), double-blind period, last week block of Table 17 (week heading not shown), n observed/imputed 2 (0/2)
[3] = 400 mg TID, Week 12, omalizumab-naïve
[4] = 400 mg TID, omalizumab-naïve population
[5] = 400 mg TID, omalizumab-naïve population with outlier removed
[6] = 400 mg TID, Prior Omalizumab Use

For `CC(C)(C=C(C#N)C(=O)N1CCC[C@@H](n2nc(-c3ccc(Oc4ccccc4)cc3F)c3c(N)ncnc32)C1)N1CCN(C2COC2)CC1` [rilzabrutinib, (R)-2-[3-[4-amino-3-(2-fluoro-4-phenoxy-phenyl)pyrazolo[3,4-d]pyrimidin-1-yl]piperidine-1-carbonyl]-4-methyl-4-[4-(oxetan-3-yl)piperazin-1-yl]pent-2-enenitrile], the “UAS7 change from baseline at Week 12, LS Mean Diff vs. placebo (95% CI)” value (from here on “UAS7 change from baseline … (95% CI)”) (400 mg TID, ITT population) was −6.76 (−12.01, −1.51), the “UAS7 change from baseline at Week 12, Mean (SD)” value (400 mg TID, ITT population) was −20.30 (12.41) ^ and the “UAS7 change from baseline at Week 12, Median” value (400 mg TID, ITT population) was −20.33. The “UAS7 change from baseline at Week 12, LS Mean (SE)” value (400 mg TID, ITT population) was −17.95, the “UAS7 change from baseline at Week 12, LS Mean (SE)” value (400 mg TID, ITT population, listed as Rilzabrutinib) was −17.95 (1.95) and the “decrease from baseline in UAS7” value (400 mg TID, ITT population, belongs to LS mean change −12.72) was 40.18%. The “LS mean change in UAS7 from baseline to Week 12 (see Table 18)” value (400 mg TID, ITT population, sentence on reductions following one week of treatment) was −12.72, the “UAS7 Change from baseline Mean (SD)” value [1] was −11.40 (6.62) and the “UAS7 Change from baseline Median” value [1] was −14.00. For the same compound, the “UAS7 Percent change from baseline Mean (SD)” value [1] was −38.24 (25.31) %, the “UAS7 Percent change from baseline Median” value [1] was −45.95% and the “UAS7 change from baseline, Max” value [1] was 0.0. For the same compound, the “UAS7 change from baseline, Min” value [1] was −17.0, the “UAS7 change from baseline, Q1” value [1] was −14.00 and the “UAS7 change from baseline, Q3” value [1] was −12.00. The “UAS7 percent change from baseline, Max” value [1] was 0.0%, the “UAS7 percent change from baseline, Q1” value [1] was −50.00% and the “UAS7 percent change from baseline, Q3” value [1] was −28.57%. The “UAS7 Change from baseline Mean (SD)” value [2] was −3.50 (4.95), the “UAS7 Change from baseline Median” value [2] was −3.50 and the “UAS7 Percent change from baseline Mean (SD)” value [2] was −21.88 (30.94) %. The “UAS7 Percent change from baseline Median” value [2] was −21.88%, the “UAS7 change from baseline, Max” value [2] was 0.0 and the “UAS7 change from baseline, Min” value [2] was −7.0. For the same compound, the “UAS7 change from baseline, Q1” value [2] was −7.00, the “UAS7 change from baseline, Q3” value [2] was 0.00 and the “UAS7 percent change from baseline, Max” value [2] was 0.0%. For the same compound, the “UAS7 percent change from baseline, Min” value [2] was −43.8%, the “UAS7 percent change from baseline, Q1” value [2] was −43.75% and the “UAS7 percent change from baseline, Q3” value [2] was 0.00%. The “participants with UAS7 of 0” value [3] was 20.0%, the “participants with UAS7 of ≤6” value [3] was 34.3% and the “LS mean reduction in UAS7 from baseline to Week 12 (see Table 19)” value [4] was −11.44. The “UAS7 at Week 12, Mean (SD)” value [4] was 11.00 (9.90), the “UAS7 at Week 12, Median” value [4] was 12.25 and the “UAS7 change from baseline … (95% CI)” value [4] was −6.75 (−12.23, −1.26). For the same compound, the “UAS7 change from baseline at Week 12, Mean (SD)” value [4] was −19.04 (11.40) ^, the “UAS7 change from baseline at Week 12, Median” value [4] was −18.92 and the “UAS7 at Week 12, Mean (SD)” value [5] was 11.00 (9.90). The “UAS7 at Week 12, Median” value [5] was 12.25, the “UAS7 change from baseline … (95% CI)” value [5] was −7.50 (−13.02, −1.97) and the “UAS7 change from baseline at Week 12, Mean (SD)” value [5] was −19.04 (11.40) ^. For the same compound, the “UAS7 change from baseline at Week 12, Median” value [5] was −18.92, the “UAS7 change from baseline at Week 12, LS Mean (SE)” value [5] was −17.50 and the “UAS7 change from baseline at Week 12, LS Mean (SE)” value (400 mg TID, omalizumab-naïve population with outlier removed, listed as Rilzabrutinib) was −17.50 (2.06). For the same compound, the “UAS7 change from baseline at Week 12, LS Mean (SE)” value [4] was −16.89, the “UAS7 change from baseline at Week 12, LS Mean (SE)” value (400 mg TID, omalizumab-naïve population, listed as Rilzabrutinib) was −16.89 (2.04) and the “UAS7 Mean (SD)” value (400 mg BID, Omalizumab-Naïve) was 15.60 (17.52). For the same compound, the “UAS7 Median” value (400 mg BID, Omalizumab-Naïve) was 14.00, the “UAS7 Mean (SD)” value (400 mg QPM, Omalizumab-Naïve) was 11.70 (16.82) and the “UAS7 Median” value (400 mg QPM, Omalizumab-Naïve) was 5.00. The “UAS7 Mean (SD)” value (400 mg TID, Omalizumab-Naïve) was 21.40 (11.74), the “UAS7 Median” value (400 mg TID, Omalizumab-Naïve) was 20.00 and the “UAS7 Mean (SD)” value [6] was 15.58 (9.31). For the same compound, the “UAS7 Median” value [6] was 15.58, the “UAS7 % Change difference for rilzabrutinib vs. placebo LS Mean (95% CI)” value (shortened to “UAS7 % Change difference … (95% CI)”) (400 mg BID, Week 2) was −17.26% and the “UAS7 % Change from baseline LS Mean (SE)” value (400 mg BID, Week 2) was −36.13%. For the same compound, the “UAS7 Change difference for rilzabrutinib vs. placebo LS Mean (95% CI)” value (“UAS7 Change difference … (95% CI)” for short) (400 mg BID, Week 2) was −4.49, the “UAS7 Change from baseline LS Mean (SE)” value (400 mg BID, Week 2) was −10.82 and the “UAS7 % Change difference … (95% CI)” value (400 mg QPM, Week 3) was −7.92%. The “UAS7 % Change from baseline LS Mean (SE)” value (400 mg QPM, Week 3) was −29.55%, the “UAS7 Change difference … (95% CI)” value (400 mg QPM, Week 3) was −1.91 and the “UAS7 Change from baseline LS Mean (SE)” value (400 mg QPM, Week 3) was −9.50. For the same compound, the “UAS7 % Change difference … (95% CI)” value (400 mg QPM, Week 5) was −0.72%, the “UAS7 % Change from baseline LS Mean (SE)” value (400 mg QPM, Week 5) was −32.52% and the “UAS7 Change difference … (95% CI)” value (400 mg QPM, Week 5) was −0.26.
